{
  "source": "patent US20240415790A1",
  "about": "“A COMPOSITION FOR USE IN THE TREATMENT OF INTERVERTEBRAL DISC HERNIATION” (STAYBLE THERAPEUTICS AB, priority 2020, published 2024)",
  "key": {"[1]": {"tested_on": "porcine NP and AF", "test": "Macroscopic and histological evaluation of porcine IVD after intradiscal or external LA (series 1 and 2)", "format": "in vivo", "details": "pig", "protocol": "The pigs were placed on the right side. A 6 cm long incision was made from the costal arch to the iliac crest, just lateral to the lateral processes. The lumbar IVDs were approached by a retroperitoneal technique. The L3/4 IVD was incised and 0.2 mL of the LA-formulation (n=6) or the placebo (n=2) was injected under fluoroscopic guidance. The LA-formulation was composed of LA (120 mg/mL) and iohexol (180 mg I/mL) while placebo consisted of iohexol only. The concentration was determined based on the pilot experiments on the effects of LA on collagen secretion from human NP cells (as described in WO 2017/046030). In this set of in vivo experiments, the pH of the placebo formulation was adjusted to the same as the active formulation (about 1.5) using hydrochloric acid. The adjacent IVDs were not injected and served as negative controls. The volume of the pig NP is about 1 mL and it was estimated that 0.2 mL would be an appropriate injection volume. The height and width of normally appearing NP (FIG. 6a) in the anteroposterior (short vertical double arrow) and bilateral (short horizontal double arrow) directions, respectively, were measured and expressed in relation to the height (long vertical double arrow), and width (long horizontal double arrow) of the IVD. […] The group data for NP height as percent of total IVD height are shown in FIG. 7 and the corresponding data for NP width are illustrated in FIG. 8. Further, the IVD was cut in half and photographed. The bilateral width and anteroposterior height of normally appearing NP was measured and expressed as percent of the total IVD width and height, respectively, as depicted in FIGS. 7 and 8. The aim of the second series (including 16 pigs) was to assess the safety and efficacy of the treatment and was part of the regulatory documentation required by the Swedish Medical Products Agency to initiate studies in humans. All procedures were as described above, with the following exceptions. […] In one group of animals, LA or placebo was applied onto the IVD outside the spinal foramen (external application) to assess any tissue damage resulting from leakage from the IVD or a misdirected injection. Due to this experimental design, spinal flexural stiffness was not measured in these pigs. The only other difference between the two series was that exposed tissues were evaluated histologically in the second but not first series. The lumbar spine was removed en bloc and any pathological changes were assessed macroscopically and photographed in extradiscal tissue onto which LA had been applied. Specimens of spinal nerves and muscle tissue were collected, fixed in 10% formalin, and processed for microscopy with hematoxylin/eosin staining. Injected IVDs were cut in half, inspected macroscopically, and photographed. Samples of the IVD were collected and processed for microscopy with hematoxylin/eosin. These turned out to include AF but very little NP so in order to obtain an improved overview of the IVD, the IVDs with adhering vertebrae were decalcified to enable preparation of axial sections of the whole IVD which were stained with Massons's trichrome. FIG. 9 illustrates effects of LA on the AF (A,B) and NP (C-J). LA or placebo (0.2 mL) was injected into IVDs of anesthetized pigs. The animals were sacrificed 4 or 12 weeks post injection and the IVDs were sectioned in half. After fixation in 10% formalin, decalcification and paraffin embedding, sections were cut at 5 μm and stained with hematoxylin&eosin (A,B) or Masson's trichrome (C-J). Fibrocartilagenous cells can be seen in the AF from untreated IVDs (arrows in A) but frequently, multicellular chondrons appeared after injection of LA (240 mg/mL, 12 weeks survival; arrows in B). NP of an untreated (extradiscal injection) IVD (C) consists of islets of notochordal cells (asterisk) embedded in weakly stained extracellular matrix. In LA-treated NP, collagenous fibers can be seen (asterisks in D; 120 mg/mL LA, 4 weeks survival and E; 120 mg/mL LA, 12 weeks survival). […]"}, "[2]": {"tested_on": "porcine IVD", "test": "T2-weighted MRI and photographs of porcine IVD after LA (series 3), disc height and width", "format": "in vivo", "details": "pig", "protocol": "Since effects of LA on the NP in the subsequent clinical study was planned to be assessed using MRI, the third series focused on the effects of LA (0.2 mL, 60 mg/mL) on sclerotization as measured by T2-weighted MRI. In addition, effects of LA on the expression of collagen I and II were studied by immunohistochemistry (IHC). […] MR images were obtained using a 7T small animal MRI system (Bruker Biospec). A single 50 mm volume coil array was used (Tx/Rx). The dissected spines were stripped of the attached muscles, the spinous processes, transverse processes, and posterior aspects of the facet joints to allow them to fit in the MRI system. T2-weighted (TR: 2500-2834 ms, TE: 33-35.84 ms), 2D TurboRARE transversal and sagittal sequences were used. The TR and TE could not be maintained the same for all sequences due to required adjustments in field of view the different specimens, leading to an increased pixel matrix which affected the TR and TE. For the transverse sequences, a 500 μm slice thickness with 750 μm interslice distance and an in-plane resolution of 166×166 μm was used. For the sagittal sequences, a 750 μm slice thickness with 2000 μm interslice distance and an in-place resolution of 166×166 μm was used. […] Images were analyzed using Sante DICOM Viewer (version 8.1.5, Santesoft, Athens, Greece). The treated IVDs in all animals were assessed, and the IVD one level above the treated IVD was scanned as control. The size of the NP was quantified using both MR images and photographs of the IVDs (see FIG. 6). The results from the macroscopic and MR analyses were then correlated. […] The relative disc height was expressed as a ratio of height of treated IVD/height of untreated (control) IVD. Analogously, the relative disc width was expressed as a ratio of width of treated IVD/width of untreated (control) IVD."}, "[3]": {"details": "individual animals 1-5, LA 0.2 mL 60 mg/mL"}, "[4]": {"details": "mean of 5 animals, LA 0.2 mL 60 mg/mL"}},
  "note": "Values joined by “and” are separate entries in the source; they are usually repeats but may differ in a detail not shown here. Identical values can stand only once.",
  "data": [
    {"molecule": "CC(O)C(=O)O", "note": "(stereo not drawn) [LA, lactic acid]", "values": [
      {"measurement": "Fibrotic changes at sites of extradiscal administration", "setting": "[1]; 28-day follow-up, external 120 mg/mL", "result": "No fibrotic changes"},
      {"measurement": "Histological changes of the NP", "setting": "[1]; 28-day follow-up, intradiscal 120 or 240 mg/mL", "result": "Dense bundles of fibrotic tissue"},
      {"measurement": "NP size (macroscopic)", "setting": "[1]; 28 and 84 days after LA treatment vs normally appearing NP", "result": "reduction in NP size"},
      {"measurement": "Histological changes of the NP", "setting": "[1]; 84-day follow-up, intradiscal 120 or 240 mg/mL", "result": "sclerosis (FIG. 9D-J), cystic degeneration (FIG. 9J), cartilaginous metaplasia (FIG. 9F, 9G), osteoid islands (FIG. 9F, 9G) and reduction in the extracellular matrix"},
      {"measurement": "Histological changes of the NP", "setting": "[1]; two days after intradiscal injection", "result": "marked histological changes characterized by lysis of the extracellular matrix"},
      {"measurement": "Hemorrhage and inflammatory changes, LA vs vehicle", "setting": "[1]; two-day follow up, intradiscal injection", "result": "not obviously more marked"},
      {"measurement": "Height of the treated IVD on MR image (FIG. 12)", "setting": "[2]; 60 mg/ml LA, 30 days prior to the image, vs untreated control IVD", "result": "significant reduction in height"},
      {"measurement": "T2-weighted MRI intensity of the sclerotized NP", "setting": "[2]; LA 60 mg/mL", "result": "much lower"},
      {"measurement": "Relative disc height (treated IVD/untreated control IVD)", "setting": "[2]; [3]", "result": "0.55 and 0.2 and 0.33 and 0.7 and 0.36"},
      {"measurement": "Relative disc width (treated IVD/untreated control IVD)", "setting": "[2]; [3]", "result": "1 and 1.01 and 0.99 (2×) and 1.04"},
      {"measurement": "Relative disc height, mean value", "setting": "[2]; [4]", "result": 0.43},
      {"measurement": "Relative disc width, mean value", "setting": "[2]; [4]", "result": 1.01}
    ]}
  ]
}
